Measured values: patent US20240158393A1, “PYRIDONE COMPOUNDS AND METHODS OF USE” (Exelixis, Inc., priority 2021, published 2024)
Where a name gives a salt, the structure may show the parent alone.

Assays:
Human Mer = target: T1, Human Mer (Homo sapiens, UniProt Q12866); assay: Human Mer kinase assay (33P radiometric / HTRF KinEase); type: biochemical; settings: protocols of Examples C-1 and/or C-2
T1 construct: Human Mer (residues R557-E882 with H628Q and R794A, 0.7 nM); purchased Eurofins Pharma Discovery Services UK Limited (KinaseProfiler service)
T1 sequence (Q12866 557-882 limits assumed): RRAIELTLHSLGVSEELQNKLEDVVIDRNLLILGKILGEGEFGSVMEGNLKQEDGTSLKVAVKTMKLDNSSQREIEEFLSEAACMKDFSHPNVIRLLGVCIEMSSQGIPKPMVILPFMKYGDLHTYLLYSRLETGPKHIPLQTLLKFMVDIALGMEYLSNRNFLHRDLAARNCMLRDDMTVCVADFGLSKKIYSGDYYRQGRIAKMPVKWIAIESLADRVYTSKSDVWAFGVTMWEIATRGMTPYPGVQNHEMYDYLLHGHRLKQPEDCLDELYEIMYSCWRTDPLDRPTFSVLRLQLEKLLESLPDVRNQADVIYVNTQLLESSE
In short: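 Two formats yield IC50 values. HTRF KinEase used MER residues 528-999 with ATP at Km (40 μM), 1 μM biotin-peptide, 60 min RT, […], 10 concentrations. 33P filter assay used 0.7 nM Mer R557-E882 (H628Q/R794A), 10 μM ATP, 250 μM peptide, 40 min RT, top 1 μM.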

Human KDR = target: T2, Human KDR (Homo sapiens, UniProt P35968); assay: Human KDR kinase assay (33P radiometric / HTRF KinEase); type: biochemical; settings: protocols of Examples B-1 and/or B-2
T2 construct: Human KDR (residues K790-V1356, 55 nM); purchased Eurofins Pharma Discovery Services UK Limited (KinaseProfiler, B-1) and/or CarnaBio (B-2)
T2 sequence (P35968 790-1356): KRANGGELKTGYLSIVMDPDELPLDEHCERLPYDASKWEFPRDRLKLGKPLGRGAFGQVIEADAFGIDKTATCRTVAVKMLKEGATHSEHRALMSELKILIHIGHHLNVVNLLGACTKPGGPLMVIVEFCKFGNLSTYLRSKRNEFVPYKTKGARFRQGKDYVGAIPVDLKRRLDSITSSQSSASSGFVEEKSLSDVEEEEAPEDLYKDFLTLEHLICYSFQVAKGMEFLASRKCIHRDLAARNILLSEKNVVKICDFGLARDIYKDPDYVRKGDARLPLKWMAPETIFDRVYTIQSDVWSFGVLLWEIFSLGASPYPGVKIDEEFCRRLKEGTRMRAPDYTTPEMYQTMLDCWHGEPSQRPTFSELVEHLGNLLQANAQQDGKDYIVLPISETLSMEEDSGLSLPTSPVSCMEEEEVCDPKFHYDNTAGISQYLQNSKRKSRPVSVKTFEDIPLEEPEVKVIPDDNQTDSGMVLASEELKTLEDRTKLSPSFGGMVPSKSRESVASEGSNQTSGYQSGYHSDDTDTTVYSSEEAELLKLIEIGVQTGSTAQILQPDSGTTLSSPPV
In short: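 Radiometric: KDR K790-V1356 (55 nM), MOPS pH 7.0, myelin basic protein, 10 μM [γ-33P]ATP, 40 min at room temperature, filter-bound 33P counted; nine half-log doses, top 1 μM. HTRF: KDR 790-1356, 1 μM biotinylated peptide, ATP at Km (4.0 μM), 40 min, 10 doses. IC50 from logistic fits.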

Row | Compound | IC50 (Human Mer) | IC50 (Human KDR)
1 | C=C(C)c1c(C)n(C)c(C)c(C(=O)Nc2ccc(Oc3ccnc4cc(OC)c(OC)nc34)c(F)c2)c1=O [Compound 52, N-[4-[(6,7-Dimethoxy-1,5-naphthyridin-4-yl)oxy]-3-fluorophenyl]-1,2,6-trimethyl-4-oxo-5-prop-1-en-2-ylpyridine-3-carboxamide] | ≤ 100 nM | > 300 nM
2 | COc1cc2nccc(Oc3ccc(NC(=O)c4c(C)n(C)c(C)c(C5=CCOCC5)c4=O)cc3F)c2nc1OC [Compound 53, 5-(3,6-Dihydro-2H-pyran-4-yl)-N-[4-[(6,7-dimethoxy-1,5-naphthyridin-4-yl)oxy]-3-fluorophenyl]-1,2,6-trimethyl-4-oxopyridine-3-carboxamide] | ≤ 100 nM | > 300 nM
3 | COCCOc1cc2nccc(Oc3ccc(NC(=O)c4c(C)n(C)c(C)c(/C=C/C5CCCC5)c4=O)cc3F)c2nc1OC [Compound 54, 5-[(E)-2-Cyclopentylethenyl]-N-[3-fluoro-4-[[6-methoxy-7-(2-methoxyethoxy)-1,5-naphthyridin-4-yl]oxy]phenyl]-1,2,6-trimethyl-4-oxopyridine-3-carboxamide] | ≤ 100 nM | 100 to 300 nM
4 | C=C(C)c1c(C)n(C)c(C)c(C(=O)Nc2ccc(Oc3ccnc4cc(OC)c(OC)nc34)cc2)c1=O [Compound 55, N-[4-[(6,7-Dimethoxy-1,5-naphthyridin-4-yl)oxy]phenyl]-1,2,6-trimethyl-4-oxo-5-prop-1-en-2-ylpyridine-3-carboxamide] | ≤ 100 nM | > 300 nM
5 | COCCOc1cc2nccc(Oc3ccc(NC(=O)c4c(C)n(C)c(C)c(C5=CCCCC5)c4=O)cc3F)c2nc1OC [Compound 58, 5-(Cyclohexen-1-yl)-N-[3-fluoro-4-[[6-methoxy-7-(2-methoxyethoxy)-1,5-naphthyridin-4-yl]oxy]phenyl]-1,2,6-trimethyl-4-oxopyridine-3-carboxamide] | ≤ 100 nM | ≤ 100 nM
6 | COCCOc1cnc2c(Oc3ccc(NC(=O)c4c(C)n(C)c(C)c(C5=CCCC5)c4=O)cc3F)ccnc2c1 [Compound 65, 5-(Cyclopenten-1-yl)-N-[3-fluoro-4-[[7-(2-methoxyethoxy)-1,5-naphthyridin-4-yl]oxy]phenyl]-1,2,6-trimethyl-4-oxopyridine-3-carboxamide] | ≤ 100 nM | 100 to 300 nM
7 | COCCOc1cnc2c(Oc3ccc(NC(=O)c4c(C)n(C)c(C)c(C5=CCCCC5)c4=O)cc3F)ccnc2c1 [Compound 66, 5-(Cyclohexen-1-yl)-N-[3-fluoro-4-[[7-(2-methoxyethoxy)-1,5-naphthyridin-4-yl]oxy]phenyl]-1,2,6-trimethyl-4-oxopyridine-3-carboxamide] | ≤ 100 nM | > 300 nM
8 | COc1cc2nccc(Oc3ccc(NC(=O)c4c5n(c(C)c(C6=CCOCC6)c4=O)CCOC5)cc3)c2nc1OC [Compound 73, 7-(3,6-Dihydro-2H-pyran-4-yl)-N-[4-[(6,7-dimethoxy-1,5-naphthyridin-4-yl)oxy]phenyl]-6-methyl-8-oxo-3,4-dihydro-1H-pyrido[2,1-c][1,4]oxazine-9-carboxamide] | ≤ 100 nM | > 300 nM
9 | COc1nc2c(Oc3ccc(NC(=O)c4c(C)n(C)c(C)c(C5=CCCC5)c4=O)cc3F)ccnc2cc1OCCC1CCC1 [Compound 74, N-[4-[[7-(2-Cyclobutylethoxy)-6-methoxy-1,5-naphthyridin-4-yl]oxy]-3-fluorophenyl]-5-(cyclopenten-1-yl)-1,2,6-trimethyl-4-oxopyridine-3-carboxamide] | ≤ 100 nM | ≤ 100 nM
10 | COc1cc2nccc(Oc3ccc(NC(=O)c4cnc(C)c(C5=CCCC5)c4O)cc3F)c2nc1OC [Compound G1-2, 5-(Cyclopenten-1-yl)-N-[4-[(6,7-dimethoxy-1,5-naphthyridin-4-yl)oxy]-3-fluorophenyl]-4-hydroxy-6-methylpyridine-3-carboxamide hydrochloride] | ≤ 100 nM | ≤ 100 nM
11 | COc1cc2nccc(Oc3ccc(NC(=O)c4cnc(C)c(C5=CCCCC5)c4O)cc3F)c2nc1OC [Compound G1-3, 5-(Cyclohexen-1-yl)-N-[4-[(6,7-dimethoxy-1,5-naphthyridin-4-yl)oxy]-3-fluorophenyl]-4-hydroxy-6-methylpyridine-3-carboxamide] | ≤ 100 nM | ≤ 100 nM
12 | COc1cc2nccc(Oc3ccc(NC(=O)c4c5n(cc(C6=CCCCC6)c4=O)CCOC5)cc3F)c2nc1OC [Compound G1-4, 7-(Cyclohexen-1-yl)-N-[4-[(6,7-dimethoxy-1,5-naphthyridin-4-yl)oxy]-3-fluorophenyl]-8-oxo-3,4-dihydro-1H-pyrido[2,1-c][1,4]oxazine-9-carboxamide] | ≤ 100 nM | ≤ 100 nM
